Assay results published in US20090214529A9, “KINESIN INHIBITORS” (TaiGen Biotechnology Co., Ltd., priority 2007, published 2009).

Test system: tumor cell
Assay: Cytotoxicity assay (MTS)
Assay type: cell-based
Conditions: 72 h; incubation for three days; read-out: IC50, tumor cell growth inhibition (MTS)
Method: The efficacy of a test compound in inhibiting tumor cell growth was analyzed using a MTS assay. The MTS assay is a calorimetric method for the determination of viable cells in proliferation by using a tetrazolium compound (3-(4,5-dimethylthiazol-2-yl)-5-(3-[…])-2-(4-sulfophenyl)-2H-tetrazolium, inner salt; MTS) and an electron-coupling agent (phenazine methosulfate; PMS). The MTS reagent is converted by dehydrogenase enzymes in metabolically active cells into a formazan that is soluble in a tissue culture medium.
In this assay, tumor cell suspensions (30 μl/well) were seeded into 384-well flat-bottomed tissue culture plates at an appropriate density overnight. A fresh medium (3 μl/well) containing varying concentrations of a test compound or vehicle was added to the culture followed by incubation for three days. At the end of the incubation, all plates were processed simultaneously as follows: The culture medium was aspirated, a MTS cell proliferation assay (Promega) solution (30 μl/well) was added, and the plates were incubated at 37° C. for about 2 hours. Absorbance (a parameter proportional to the cell mass) was measured at 490 nm using a Multiskan (Thermo Electron Corporation, Waltham, Mass.). Inhibition effects were expressed as corrected T/C values for each test compound according to the following equation:
T/C=(T−Blank)/(C−Blank)×100(%),
where T is the mean absorbance of the treated cells, C is the mean absorbance of the controls, and Blank is the mean absorbance of the cell free well.

SMILES: Cc1ccc(C(=O)N(CCN)C(c2nc3c(oc4ccc(F)cc43)c(=O)n2Cc2ccoc2)C(C)C)cc1 (stereo not shown) [Compound 128]
- IC50: < 30 µM

SMILES: Cc1ccc(C(=O)N(CCN)C(c2nc3c(oc4ccc(Cl)cc43)c(=O)n2Cc2cc(C#N)cs2)C(C)C)cc1 (stereo not shown) [Compound 129]
- IC50: < 30 µM

SMILES: Cc1ccc(C(=O)N(CCN)C(c2nc3c(oc4ccc(F)cc43)c(=O)n2Cc2ccc(CO)cc2)C(C)C)cc1 (stereo not shown) [Compound 130]
- IC50: < 30 µM

SMILES: Cc1ccc(C(=O)N(CCN)C(c2nc3c(oc4ccc(Cl)cc43)c(=O)n2Cc2ccc(/C=C/O)s2)C(C)C)cc1 (stereo not shown) [Compound 134]
- IC50: < 30 µM

SMILES: Cc1ccc(C(=O)N(CCCN)C(c2nc3c(sc4ccccc43)c(=O)n2Cc2ccccc2)C(C)C)cc1 (stereo not shown) [Compound 135]
- IC50: < 30 µM

SMILES: Cc1ccc(C(=O)N(CCCN)C(c2nc3c(sc4ccc(F)cc43)c(=O)n2Cc2ccccc2)C(C)C)cc1 (stereo not shown) [Compound 136]
- IC50: < 30 µM

SMILES: Cc1ccc(C(=O)N(CCCN)C(c2nc3c(sc4ccc(F)cc43)c(=O)n2Cc2ccccc2)C(C)C)cc1F (stereo not shown) [Compound 137]
- IC50: < 30 µM

SMILES: Cc1ccc(C(=O)N(CCCN)C(c2nc3c(sc4ccccc43)c(=O)n2Cc2ccc(Cl)s2)C(C)C)cc1 (stereo not shown) [Compound 138]
- IC50: < 30 µM

SMILES: CC(C)C(c1nc2c(sc3ccc(F)cc32)c(=O)n1Cc1ccccc1)N(CCCN)C(=O)c1ccc(Cl)cc1 (stereo not shown) [Compound 139]
- IC50: < 30 µM

SMILES: CC(C)C(c1nc2c(sc3ccc(F)cc32)c(=O)n1Cc1ccccc1)N(CCCN)C(=O)c1ccc(Br)cc1 (stereo not shown) [Compound 140]
- IC50: < 30 µM

SMILES: CC(C)C(c1nc2c(sc3ccccc32)c(=O)n1Cc1ccc(Cl)s1)N(CCCN)C(=O)c1ccc(Br)cc1 (stereo not shown) [Compound 141]
- IC50: < 30 µM

SMILES: Cc1ccc(C(=O)N(CCCN)C(c2nc3c(sc4ccccc43)c(=O)n2Cc2ccc(Cl)s2)C(C)C)cc1F (stereo not shown) [Compound 142]
- IC50: < 30 µM

SMILES: CC(C)C(c1nc2c(sc3ccccc32)c(=O)n1Cc1ccc(Cl)s1)N(CCCN)C(=O)c1ccc(Cl)cc1 (stereo not shown) [Compound 143]
- IC50: < 30 µM

SMILES: Cc1ccc(C(=O)N(CCCN)C(c2nc3c(sc4ccccc43)c(=O)n2Cc2ccc(Br)s2)C(C)C)cc1 (stereo not shown) [Compound 144]
- IC50: < 30 µM

SMILES: CC(C)C(c1nc2c(sc3ccccc32)c(=O)n1Cc1ccc(Br)s1)N(CCCN)C(=O)c1ccc(Br)cc1 (stereo not shown) [Compound 145]
- IC50: < 30 µM

SMILES: Cc1ccc(C(=O)N(CCCN)C(c2nc3c(sc4ccccc43)c(=O)n2Cc2ccc(Br)s2)C(C)C)cc1F (stereo not shown) [Compound 146]
- IC50: < 30 µM

SMILES: CC(C)C(c1nc2c(sc3ccccc32)c(=O)n1Cc1ccc(Br)s1)N(CCCN)C(=O)c1ccc(Cl)cc1 (stereo not shown) [Compound 147]
- IC50: < 30 µM

SMILES: Cc1ccc(C(=O)N(CCCN)C(c2nc3c(sc4ccccc43)c(=O)n2Cc2cccs2)C(C)C)cc1 (stereo not shown) [Compound 148]
- IC50: < 30 µM

SMILES: Cc1ccc(C(=O)N(NCCN)C(c2nc3c(sc4ccccc43)c(=O)n2Cc2ccc(Br)s2)C(C)C)cc1 (stereo not shown) [Compound 149]
- IC50: < 30 µM

SMILES: CC(C)C(c1nc2n(c(=O)c1Cc1ccccc1)Cc1ccccc1-2)N(CCCN)C(=O)c1ccc(Cl)cc1 (stereo not shown) [Compound 151]
- IC50: < 30 µM

SMILES: Cc1ccc(C(=O)N(CCCN)C(c2nc3n(c(=O)c2Cc2ccccc2)Cc2ccccc2-3)C(C)C)cc1F (stereo not shown) [Compound 152]
- IC50: < 30 µM

SMILES: Cc1ccc(C(=O)N(CCC2(N)CCC2)C(c2nc3n(c(=O)c2Cc2ccccc2)Cc2ccccc2-3)C(C)C)cc1 (stereo not shown) [Compound 153]
- IC50: < 30 µM

SMILES: Cc1ccc(C(=O)N(CCCN)C(c2nc3n(c(=O)c2Cc2ccccc2)Cc2ccccc2-3)C(C)C)c(F)c1F (stereo not shown) [Compound 154]
- IC50: < 30 µM

SMILES: CC(C)C(c1nc2n(c(=O)c1Cc1ccccc1)Cc1ccccc1-2)N(CCCN)C(=O)c1ccc(Br)cc1 (stereo not shown) [Compound 155]
- IC50: < 30 µM

SMILES: Cc1ccc(C(=O)N(CCCN)C(c2nc3c(sc4ncccc43)c(=O)n2Cc2ccccc2)C(C)C)cc1 (stereo not shown) [Compound 156]
- IC50: < 30 µM

SMILES: Cc1ccc(C(=O)N(CCCN)C(c2nc3c([nH]c4ccc(Br)cc43)c(=O)n2Cc2ccccc2)C(C)C)cc1 (stereo not shown) [Compound 157]
- IC50: < 30 µM

SMILES: Cc1ccc(C(=O)N(CCCN)C(c2nc3c([nH]c4ccccc43)c(=O)n2Cc2ccccc2)C(C)C)cc1 (stereo not shown) [Compound 158]
- IC50: < 30 µM

SMILES: CCC(c1nn2c(cc3ccccc32)c(=O)n1Cc1ccccc1)N(CCCN)C(=O)c1ccc(C)cc1 (stereo not shown) [Compound 159]
- IC50: < 30 µM

SMILES: Cc1ccc(C(=O)N(CCN)C(c2nc3c(oc4ccccc43)c(=O)n2Cc2ccc(Cl)s2)C(C)C)cc1 (stereo not shown) [Compound 160]
- IC50: < 30 µM

SMILES: Cc1ccc(C(=O)N(CCN)C(c2nc3c(oc4ccccc43)c(=O)n2Cc2cc(C)cs2)C(C)C)cc1 (stereo not shown) [Compound 161]
- IC50: < 30 µM

SMILES: Cc1ccc(C(=O)N(CCN)C(c2nc3c(oc4ccccc43)c(=O)n2Cc2ccc(Cl)o2)C(C)C)cc1 (stereo not shown) [Compound 162]
- IC50: < 30 µM

SMILES: Cc1ccc(C(=O)N(CCN)C(c2nc3c(oc4ccccc43)c(=O)n2Cc2ccc(C#N)s2)C(C)C)cc1 (stereo not shown) [Compound 163]
- IC50: < 30 µM

SMILES: Cc1ccc(C(=O)N(CCN)C(c2nc3c(oc4ccccc43)c(=O)n2Cc2ccc(Br)s2)C(C)C)cc1 (stereo not shown) [Compound 164]
- IC50: < 30 µM

SMILES: Cc1ccc(C(=O)N(CCN)C(c2nc3c(oc4ccccc43)c(=O)n2Cc2ccc(Br)o2)C(C)C)cc1 (stereo not shown) [Compound 165]
- IC50: < 30 µM

SMILES: Cc1csc(Cn2c(C(C(C)C)N(CCN)C(=O)c3ccc(Cl)cc3)nc3c(oc4ccc(F)cc43)c2=O)c1 (stereo not shown) [Compound 166]
- IC50: < 30 µM

SMILES: Cc1csc(Cn2c(C(C(C)C)N(CCN)C(=O)c3ccc(Br)cc3)nc3c(oc4ccc(F)cc43)c2=O)c1 (stereo not shown) [Compound 167]
- IC50: < 30 µM

SMILES: CC(C)C(c1nc2c(oc3ccc(F)cc32)c(=O)n1Cc1ccc(Cl)o1)N(CCN)C(=O)c1ccc(Cl)cc1 (stereo not shown) [Compound 169]
- IC50: < 30 µM

SMILES: CC(C)C(c1nc2c(oc3ccc(F)cc32)c(=O)n1Cc1ccc(Cl)o1)N(CCN)C(=O)c1ccc(Br)cc1 (stereo not shown) [Compound 170]
- IC50: < 30 µM

SMILES: CC(C)C(c1nc2c(oc3ccc(F)cc32)c(=O)n1Cc1ccc(Cl)o1)N(CCN)C(=O)c1ccc(C(F)(F)F)cc1 (stereo not shown) [Compound 171]
- IC50: < 30 µM

SMILES: CC(C)C(c1nc2c(oc3ccc(F)cc32)c(=O)n1Cc1ccc(C#N)s1)N(CCN)C(=O)c1ccc(Cl)cc1 (stereo not shown) [Compound 172]
- IC50: < 30 µM

SMILES: CC(C)C(c1nc2c(oc3ccc(F)cc32)c(=O)n1Cc1ccc(C#N)s1)N(CCN)C(=O)c1ccc(Br)cc1 (stereo not shown) [Compound 173]
- IC50: < 30 µM

SMILES: Cc1ccc(C(=O)N(CCN)C(c2nc3c(oc4ccc(F)cc43)c(=O)n2Cc2ccc(C#N)s2)C(C)C)cc1F (stereo not shown) [Compound 174]
- IC50: < 30 µM

SMILES: Cc1ccc(C(=O)N(CCCN)[C@@H](c2nc3c(oc4ccccc43)c(=O)n2Cc2ccccc2)C(C)C)cc1 [Compound 175]
- IC50: < 30 µM

SMILES: Cc1csc(Cn2c([C@@H](C(C)C)N(CCN)C(=O)c3ccc(C)c(F)c3)nc3c(oc4ccc(F)cc43)c2=O)c1 [Compound 176]
- IC50: < 30 µM

SMILES: Cc1ccc(C(=O)N(CCN)[C@@H](c2nc3c(oc4ccc(F)cc43)c(=O)n2Cc2cc(C#N)cs2)C(C)C)cc1 [Compound 178]
- IC50: < 30 µM

SMILES: Cc1ccc(C(=O)N(CCN)[C@@H](c2nc3c(oc4ccc(F)cc43)c(=O)n2Cc2cc(C)cs2)C(C)C)cc1 [Compound 179]
- IC50: < 30 µM

SMILES: Cc1ccc(Cn2c([C@@H](C(C)C)N(CCN)C(=O)c3ccc(C)cc3)nc3c(oc4ccc(F)cc43)c2=O)cc1 [Compound 180]
- IC50: < 30 µM

SMILES: Cc1csc(Cn2c([C@@H](C(C)C)N(CCN)C(=O)c3ccc(Cl)cc3)nc3c(oc4ccc(F)cc43)c2=O)c1 [Compound 181]
- IC50: < 30 µM

SMILES: Cc1ccc(C(=O)N(CCN)[C@@H](c2nc3c(oc4ccc(F)cc43)c(=O)n2Cc2ccc(Cl)s2)C(C)C)cc1 [Compound 182]
- IC50: < 30 µM

SMILES: Cc1ccc(C(=O)N(CCN)[C@@H](c2nc3c(oc4ccc(F)cc43)c(=O)n2Cc2ccc(Br)s2)C(C)C)cc1 [Compound 183]
- IC50: < 30 µM

SMILES: Cc1ccc(Cn2c([C@@H](C(C)C)N(CCN)C(=O)c3ccc(Cl)cc3)nc3c(oc4ccc(F)cc43)c2=O)cc1 [Compound 184]
- IC50: < 30 µM

SMILES: Cc1ccc(C(=O)N(CCN)[C@@H](c2nc3c(oc4ccc(F)cc43)c(=O)n2Cc2ccco2)C(C)C)cc1 [Compound 185]
- IC50: < 30 µM

SMILES: Cc1ccc(C(=O)N(CCN)[C@@H](c2nc3c(oc4ccc(F)cc43)c(=O)n2Cc2ccco2)C(C)C)cc1F [Compound 186]
- IC50: < 30 µM

SMILES: Cc1ccc(C(=O)N(CCN)[C@@H](c2nc3c(oc4ccc(F)cc43)c(=O)n2Cc2cccc(F)c2)C(C)C)cc1 [Compound 187]
- IC50: < 30 µM

SMILES: Cc1ccc(C(=O)N(CCN)[C@@H](c2nc3c(oc4ccc(F)cc43)c(=O)n2Cc2cccc(F)c2)C(C)C)cc1F [Compound 188]
- IC50: < 30 µM

SMILES: Cc1ccc(C(=O)N(CCN)[C@@H](c2nc3c(oc4ccc(F)cc43)c(=O)n2Cc2ccc(Cl)o2)C(C)C)cc1 [Compound 189]
- IC50: < 30 µM

SMILES: Cc1ccc(C(=O)N(CCN)[C@@H](c2nc3c(oc4ccc(F)cc43)c(=O)n2Cc2ccc(Cl)o2)C(C)C)cc1F [Compound 190]
- IC50: < 30 µM

SMILES: Cc1ccc(C(=O)N(CCN)[C@@H](c2nc3c(oc4ccc(F)cc43)c(=O)n2Cc2ccccc2)C(C)C)cc1 [Compound 191]
- IC50: < 30 µM

SMILES: Cc1ccc(C(=O)N(CCN)[C@@H](c2nc3c(oc4ccc(F)cc43)c(=O)n2Cc2ccccc2)C(C)C)cc1F [Compound 192]
- IC50: < 30 µM

SMILES: CC(C)[C@H](c1nc2c(oc3ccc(F)cc32)c(=O)n1Cc1ccccc1)N(CCN)C(=O)c1ccc(Cl)cc1 [Compound 193]
- IC50: < 30 µM

SMILES: Cc1ccc(C(=O)N(CCN)[C@@H](c2nc3c(oc4ccc(F)cc43)c(=O)n2Cc2ccsc2)C(C)C)cc1 [Compound 194]
- IC50: < 30 µM
